Measured values as given in PubChem BioAssay AID2060509 (Molecular Pharmacology Branch, DTP, NCI, 2025).

System: 485176-168-R4-J1-PDC spheroids with HUVEC/MSC, viability
Assay: Anticancer human tumor 485176-168-R4-J1-PDC patient-derived pancreatic adenocarcinoma cell line growth inhibition [GQUAD]
Settings: for IC50: curve of first compound; for viability, T/C: stronger effect = lower value
Summary of the method: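 Viability of tumor cells grown as complex spheroids with endothelial and stromal cells, exposed to drug combinations. Top concentration at or near clinical Cmax (else 10 microM), diluted in half-log increments.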

[1] = second compound 0.0316 µM, first compound 0.0316 µM
[2] = second compound 0.0316 µM, first compound 0.1 µM
[3] = second compound 0.0316 µM, first compound 0.316 µM
[4] = second compound 0.0316 µM, first compound 1 µM
[5] = second compound 0.0316 µM, first compound 3.16 µM
[6] = second compound 0.0316 µM, first compound 10 µM
[7] = second compound 0.1 µM, first compound 0.0316 µM
[8] = second compound 0.1 µM, first compound 0.1 µM
[9] = second compound 0.1 µM, first compound 0.316 µM
[10] = second compound 0.1 µM, first compound 1 µM
[11] = second compound 0.1 µM, first compound 3.16 µM
[12] = second compound 0.1 µM, first compound 10 µM
[13] = second compound 0.316 µM, first compound 0.0316 µM
[14] = second compound 0.316 µM, first compound 0.1 µM
[15] = second compound 0.316 µM, first compound 0.316 µM
[16] = second compound 0.316 µM, first compound 1 µM
[17] = second compound 0.316 µM, first compound 3.16 µM
[18] = second compound 0.316 µM, first compound 10 µM
[19] = second compound 1 µM, first compound 0.0316 µM
[20] = second compound 1 µM, first compound 0.1 µM
[21] = second compound 1 µM, first compound 0.316 µM
[22] = second compound 1 µM, first compound 1 µM
[23] = second compound 1 µM, first compound 3.16 µM
[24] = second compound 1 µM, first compound 10 µM
[25] = second compound 3.16 µM, first compound 0.0316 µM
[26] = second compound 3.16 µM, first compound 0.1 µM
[27] = second compound 3.16 µM, first compound 0.316 µM
[28] = second compound 3.16 µM, first compound 1 µM
[29] = second compound 3.16 µM, first compound 3.16 µM
[30] = second compound 3.16 µM, first compound 10 µM
[31] = second compound 10 µM, first compound 0.0316 µM
[32] = second compound 10 µM, first compound 0.1 µM
[33] = second compound 10 µM, first compound 0.316 µM
[34] = second compound 10 µM, first compound 1 µM
[35] = second compound 10 µM, first compound 3.16 µM
[36] = second compound 10 µM, first compound 10 µM
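Note: spheroids exposed to compounds for seven days before readout.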
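Throughout, for viability, T/C: percent viability relative to DMSO vehicle control wells as 100%.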

## CCCS(=O)(=O)Nc1ccc(F)c(C(=O)c2c[nH]c3ncc(-c4ccc(Cl)cc4)cc23)c1F + CN(C)c1ccc(Nc2c3ccc(NC(=O)CCN4CCCC4)cc3nc3cc(NC(=O)CCN4CCCC4)ccc23)cc1
Second compound 0.0316 µM
  IC50: > 10000 nM
Second compound 0.1 µM
  IC50: > 10000 nM
Second compound 0.316 µM
  IC50: > 10000 nM
Second compound 1 µM
  IC50: > 10000 nM
Second compound 3.16 µM
  IC50: > 10000 nM
Second compound 10 µM
  IC50: 6500 nM
[1]
  viability, T/C: 87.4%
[2]
  viability, T/C: 81.9%
[3]
  viability, T/C: 91.6%
[4]
  viability, T/C: 86.4%
[5]
  viability, T/C: 86.3%
[6]
  viability, T/C: 70.1%
[7]
  viability, T/C: 100%
[8]
  viability, T/C: 99%
[9]
  viability, T/C: 83.2%
[10]
  viability, T/C: 73.6%
[11]
  viability, T/C: 94.3%
[12]
  viability, T/C: 60%
[13]
  viability, T/C: 97.5%
[14]
  viability, T/C: 95%
[15]
  viability, T/C: 91.1%
[16]
  viability, T/C: 77.2%
[17]
  viability, T/C: 90.8%
[18]
  viability, T/C: 63.7%
[19]
  viability, T/C: 76.3%
[20]
  viability, T/C: 86.8%
[21]
  viability, T/C: 105%
[22]
  viability, T/C: 94.8%
[23]
  viability, T/C: 82.5%
[24]
  viability, T/C: 65.3%
[25]
  viability, T/C: 91.8%
[26]
  viability, T/C: 87.6%
[27]
  viability, T/C: 78.8%
[28]
  viability, T/C: 81.3%
[29]
  viability, T/C: 81.2%
[30]
  viability, T/C: 51.3%
[31]
  viability, T/C: 76.6%
[32]
  viability, T/C: 83.7%
[33]
  viability, T/C: 65.4%
[34]
  viability, T/C: 70.6%
[35]
  viability, T/C: 63.3%
[36]
  viability, T/C: 42.7%

## C=CCn1c(=O)c2cnc(Nc3ccc(N4CCN(C)CC4)cc3)nc2n1-c1cccc(C(C)(C)O)n1 + Cc1cnc(CNC(=O)c2c(=O)c3ccc(N4CCCN(C)CC4)nc3n3c2sc2ccccc23)cn1
Second compound 0.0316 µM
  IC50: 233 nM
Second compound 0.1 µM
  IC50: 165 nM
Second compound 0.316 µM
  IC50: 123 nM
Second compound 1 µM
  IC50: 36.5 nM
Second compound 3.16 µM
  IC50: < 31.6 nM
Second compound 10 µM
  IC50: < 31.6 nM
[1]
  viability, T/C: 81.7%
[2]
  viability, T/C: 64.8%
[3]
  viability, T/C: 47.2%
[4]
  viability, T/C: 11.5%
[5]
  viability, T/C: 7.79%
[6]
  viability, T/C: 3.94%
[7]
  viability, T/C: 69.3%
[8]
  viability, T/C: 70.4%
[9]
  viability, T/C: 24.1%
[10]
  viability, T/C: 10.6%
[11]
  viability, T/C: 6.45%
[12]
  viability, T/C: 3.77%
[13]
  viability, T/C: 64%
[14]
  viability, T/C: 55.9%
[15]
  viability, T/C: 25%
[16]
  viability, T/C: 9.59%
[17]
  viability, T/C: 6.42%
[18]
  viability, T/C: 3.31%
[19]
  viability, T/C: 52%
[20]
  viability, T/C: 36.4%
[21]
  viability, T/C: 22.1%
[22]
  viability, T/C: 10.2%
[23]
  viability, T/C: 5.94%
[24]
  viability, T/C: 4.18%
[25]
  viability, T/C: 47.6%
[26]
  viability, T/C: 40.1%
[27]
  viability, T/C: 18.2%
[28]
  viability, T/C: 9.87%
[29]
  viability, T/C: 4.56%
[30]
  viability, T/C: 5.42%
[31]
  viability, T/C: 34.4%
[32]
  viability, T/C: 37.5%
[33]
  viability, T/C: 24.6%
[34]
  viability, T/C: 10.6%
[35]
  viability, T/C: 0.49%
[36]
  viability, T/C: 0.25%

## COc1cc(C2c3cc4c(cc3C(OC3OC5COC(C)OC5C(O)C3O)C3COC(=O)C23)OCO4)cc(OC)c1O (stereo unspecified) + Cc1cnc(CNC(=O)c2c(=O)c3ccc(N4CCCN(C)CC4)nc3n3c2sc2ccccc23)cn1
Second compound 0.0316 µM
  IC50: 322 nM
Second compound 0.1 µM
  IC50: 171 nM
Second compound 0.316 µM
  IC50: 123 nM
Second compound 1 µM
  IC50: < 31.6 nM
Second compound 3.16 µM
  IC50: < 31.6 nM
Second compound 10 µM
  IC50: < 31.6 nM
[1]
  viability, T/C: 87.9%
[2]
  viability, T/C: 63.1%
[3]
  viability, T/C: 49.7%
[4]
  viability, T/C: 38.1%
[5]
  viability, T/C: 21%
[6]
  viability, T/C: 8.67%
[7]
  viability, T/C: 65.4%
[8]
  viability, T/C: 55.4%
[9]
  viability, T/C: 40.6%
[10]
  viability, T/C: 36%
[11]
  viability, T/C: 22.3%
[12]
  viability, T/C: 8.6%
[13]
  viability, T/C: 55.6%
[14]
  viability, T/C: 53.6%
[15]
  viability, T/C: 38.2%
[16]
  viability, T/C: 41.3%
[17]
  viability, T/C: 24.3%
[18]
  viability, T/C: 8.95%
[19]
  viability, T/C: 56%
[20]
  viability, T/C: 41.8%
[21]
  viability, T/C: 47.4%
[22]
  viability, T/C: 41.5%
[23]
  viability, T/C: 18.4%
[24]
  viability, T/C: 9.08%
[25]
  viability, T/C: 49.9%
[26]
  viability, T/C: 33.8%
[27]
  viability, T/C: 35.7%
[28]
  viability, T/C: 34.8%
[29]
  viability, T/C: 22.8%
[30]
  viability, T/C: 8.98%
[31]
  viability, T/C: 42.4%
[32]
  viability, T/C: 38.9%
[33]
  viability, T/C: 39.1%
[34]
  viability, T/C: 33.3%
[35]
  viability, T/C: 18.1%
[36]
  viability, T/C: 3.75%
